Data set [1] deals with NNR subtypes affecting dopamine release. Put plainly: Antagonism of dopamine release. The note with it: in vitro. It is filed as biochemical. As for the experimental part:
Dopamine release was measured using the techniques described in U.S. Pat. No. 5,597,919 to Dull et al. Release is expressed as a percentage of release obtained with a concentration of (S)-(−)-nicotine resulting in maximal effects. Reported EC50 values are expressed in nM, and Emax values represent the amount released relative to (S)-(−)-nicotine on a percentage basis.
Antagonism of dopamine release can also be evaluated using the assays described in Gradyet al., “Characterization of nicotinic receptor mediated [3H]dopamine release from synaptosomes prepared from mouse striatum,” J. Neurochem. 59: 848-856 (1992) and Soliakov and Wonnacott, “Voltage-sensitive Ca^2+ channels involved in nicotinic receptor-mediated [3H]dopamine release from rat striatal synaptosomes,” J. Neurochem. 67:163-170 (1996).
(§1) Such disorders include substance abuse, tobacco use and weight gain that accompanies drug cessation.

The target of another data set is α4β2 subtype (Homo sapiens, UniProt P17787+P43681). Put plainly: In vitro pharmacology: antagonism at the α4β2 subtype. Format: biochemical.
Chain of α4β2 subtype (P43681 29-627 limits assumed): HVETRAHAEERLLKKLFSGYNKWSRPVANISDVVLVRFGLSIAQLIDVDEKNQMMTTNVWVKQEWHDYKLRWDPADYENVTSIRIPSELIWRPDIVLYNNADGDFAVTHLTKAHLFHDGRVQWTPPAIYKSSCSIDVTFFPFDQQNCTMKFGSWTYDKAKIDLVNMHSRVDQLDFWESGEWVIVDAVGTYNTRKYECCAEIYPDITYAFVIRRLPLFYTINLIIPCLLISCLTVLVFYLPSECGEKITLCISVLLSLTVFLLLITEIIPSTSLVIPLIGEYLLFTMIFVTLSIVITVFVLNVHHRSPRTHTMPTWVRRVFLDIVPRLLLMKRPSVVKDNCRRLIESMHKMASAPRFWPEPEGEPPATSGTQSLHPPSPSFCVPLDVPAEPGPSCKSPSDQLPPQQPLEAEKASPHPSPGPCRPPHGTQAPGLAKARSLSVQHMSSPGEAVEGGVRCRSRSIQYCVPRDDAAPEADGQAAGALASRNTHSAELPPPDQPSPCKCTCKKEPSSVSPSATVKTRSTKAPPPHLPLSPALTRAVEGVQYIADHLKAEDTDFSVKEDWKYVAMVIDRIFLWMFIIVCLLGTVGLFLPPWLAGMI
Chain of α4β2 subtype (P17787 26-502): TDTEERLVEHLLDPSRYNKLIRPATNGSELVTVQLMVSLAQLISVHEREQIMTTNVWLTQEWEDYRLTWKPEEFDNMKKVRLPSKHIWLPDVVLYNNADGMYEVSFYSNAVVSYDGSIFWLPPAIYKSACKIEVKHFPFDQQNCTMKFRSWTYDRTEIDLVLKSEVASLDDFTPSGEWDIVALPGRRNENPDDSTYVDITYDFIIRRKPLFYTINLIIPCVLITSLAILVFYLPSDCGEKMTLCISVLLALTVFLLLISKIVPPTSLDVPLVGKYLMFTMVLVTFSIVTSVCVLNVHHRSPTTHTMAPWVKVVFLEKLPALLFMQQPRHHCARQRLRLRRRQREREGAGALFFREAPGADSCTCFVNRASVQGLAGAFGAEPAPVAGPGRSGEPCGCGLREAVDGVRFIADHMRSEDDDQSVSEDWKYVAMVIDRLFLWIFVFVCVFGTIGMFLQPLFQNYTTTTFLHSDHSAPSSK
Excerpt: as §1

The next data set deals with rats. Briefly: Fourteen-day preclinical safety pharmacology study. It is filed as in vivo.

`Cl.Cl.c1cncc(N2CCC3(CCCN3)C2)c1` (stereo not drawn) [Sample 1, 7-(3-pyridyl)-1,7-diazaspiro[4.4]nonane dihydrochloride]: in data set [1], the “Imax, antagonist at NNR subtypes affecting dopamine release” value stood at 67%. The IC50 (as a rule, the concentration at which inhibition is half-maximal) in data set [1] (read-out: IC50, antagonist at NNR subtypes affecting dopamine release) amounted to 0.901 µM. Also, the “Imax, antagonist at the α4β2 subtype” value on α4β2 subtype is 50%. In addition, at α4β2 subtype (read-out: IC50, antagonist at the α4β2 subtype), the concentration for half-maximal inhibition (IC50) came to 193 µM. In the data set with rats, the stimulant sensitization properties result is “without demonstrating stimulant sensitization properties” and the “weight gain in rats” value is recorded as “reduced weight gain”.

For the origin of these results see patent publication US20060058328A1, “Use of N-aryl diazaspiracyclic compounds in the treatment of addiction” (priority 2004, published 2006).
